Consider three compounds from ChEMBL document CHEMBL4130341 (Medchemcomm, 2016).

Activity calls are given as the source filed them. The rule behind the calls is not given here.

For series [1], the system named is MCF7. Nature of the series: Cytotoxicity against human MCF7 cells assessed as cell survival at 100 uM after 24 hrs by SRB assay relative to control. The series is classed as functional. Particulars: for viability at 100 µM: MCF7, 24 h, read-out: Survival. (In SRB staining, fixed cells bind dye roughly in proportion to their protein.)
In series [2] the target is T1, Nuclear factor erythroid 2-related factor 2 (Mus musculus) (UniProt Q60795).
T1 sequence (whole entry): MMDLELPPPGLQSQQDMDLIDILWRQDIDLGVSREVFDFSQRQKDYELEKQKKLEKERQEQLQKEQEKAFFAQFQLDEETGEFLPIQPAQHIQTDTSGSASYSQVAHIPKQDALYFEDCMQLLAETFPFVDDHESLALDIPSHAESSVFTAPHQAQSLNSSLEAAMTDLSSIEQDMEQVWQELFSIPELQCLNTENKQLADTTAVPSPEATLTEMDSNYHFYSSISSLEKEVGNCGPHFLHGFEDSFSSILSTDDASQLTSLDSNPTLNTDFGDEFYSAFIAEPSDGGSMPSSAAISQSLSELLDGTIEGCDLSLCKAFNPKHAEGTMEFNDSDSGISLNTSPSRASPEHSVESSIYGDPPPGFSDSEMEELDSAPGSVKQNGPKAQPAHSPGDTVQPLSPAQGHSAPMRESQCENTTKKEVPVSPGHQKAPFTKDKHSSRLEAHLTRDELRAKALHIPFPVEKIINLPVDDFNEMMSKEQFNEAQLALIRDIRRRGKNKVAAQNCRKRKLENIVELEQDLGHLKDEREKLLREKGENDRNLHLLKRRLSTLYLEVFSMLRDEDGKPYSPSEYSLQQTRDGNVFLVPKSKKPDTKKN
Nature of the series: Activation of Nrf2 in mutant mouse BpRc1 cells cytosolic fraction assessed as induction of quinone reductase activity at 10 uM using 2,6-DCIP as substrate in presence of NADH incubated for 48 hrs measured for 1 min relative to control. Type of series: cell-based.

In series [3] the test system is Rattus norvegicus. Nature of the series: In vivo induction of CYP450 activity in Wistar rat liver microsomal fraction at 15 mg/kg, po qd administered over 2 weeks by measuring EROD activity using 7-ethoxyresorufine as substrate measured for 5 mins. The series is classed as ADME, organism-based. Particulars: microsomes. A general note: Liver microsomes are a subcellular fraction often used to study metabolism.

The nature of series [4]: Ratio of IC50 for cytotoxicity against mutant mouse BpRc1 cells to CD for activation of Nrf2 in mutant mouse BpRc1 cells cytosolic fraction.
Series [5] deals with Rattus norvegicus. Nature of the series: Toxicity in Wistar rat assessed as effect on body weight at 15 mg/kg, po qd administered over 2 weeks. Type of series: organism-based. Particulars: in vivo, 336 h.
For the next series, the system named is Salmonella typhimurium. Nature of the series: Mutagenicity in Salmonella typhimurium TA98 in presence of mouse liver S9 fraction by Ames test. Particulars: salmonella enterica subsp. enterica serovar typhimurium. Type of series: toxicity, organism-based. (In the Ames test, an excess of revertant colonies over the control signals mutagenicity.)
The target of series [6] is T1, Nuclear factor erythroid 2-related factor 2 (Mus musculus). Nature of the series: Induction of Nrf2 nuclear translocation in mouse Hepa1c1c7 cells at 20 uM after 6 hrs by DAPI/Hoechst 33258 staining-based immunofluorescence method. The series is classed as cell-based.
In series [7] the test system is Rattus norvegicus. Nature of the series: In vivo induction of CYP450 activity in Wistar rat mammary gland microsomal fraction at 15 mg/kg, po qd administered over 2 weeks by measuring EROD activity using 7-ethoxyresorufine as substrate measured for 5 mins. The series is classed as ADME, organism-based. Particulars: microsomes.
Series [8] in a line: Ratio of IC50 for cytotoxicity against wild type mouse Hepa1c1c7 cells to CD for activation of Nrf2 in wild type mouse Hepa1c1c7 cells cytosolic fraction.
Another series relates to HK-2. Nature of the series: Genotoxicity in human HK2 cells assessed as induction of DNA strand breakage at 20 uM after 6 hrs by DAPI staining based alkaline comet assay. The series is classed as toxicity, cell-based. Particulars: hk-2, 6 h.
Series [9] has as its target T1, Nuclear factor erythroid 2-related factor 2 (Mus musculus). Nature of the series: Activation of Nrf2 in wild type mouse Hepa1c1c7 cells cytosolic fraction assessed as induction of quinone reductase activity using 2,6-DCIP as substrate in presence of NADH incubated for 48 hrs measured for 1 min.
Series [10] concerns Rattus norvegicus. Nature of the series: Toxicity in Wistar rat assessed as effect on behavior at 15 mg/kg, po qd administered over 2 weeks. The series is classed as organism-based. The note with it: in vivo, 336 h.
For series [11], the target named is T1, Nuclear factor erythroid 2-related factor 2 (Mus musculus). Nature of the series: Ratio of activation of wild type Nrf2 in mouse Hepa1c1c7 cells cytosolic fraction to activation of Nrf2 in mutant mouse BpRc1 cells cytosolic fraction. The series is classed as cell-based.
The nature of series [12]: Cytotoxicity against mutant mouse BpRc1 cells after 48 hrs by SRB assay. Particulars: BPrc1, 48 h. Type of series: functional, cell-based.
Series [13] concerns HT-29. Nature of the series: Cytotoxicity against human HT-29 cells assessed as cell survival at 100 uM after 24 hrs by SRB assay relative to control. The note with it: HT-29, 24 h, read-out: Survival. Type of series: functional.
Series [14] deals with T1, Nuclear factor erythroid 2-related factor 2 (Mus musculus). Nature of the series: Ratio of CD for activation of Nrf2 in mutant mouse BpRc1 cells cytosolic fraction to CD for activation of Nrf2 in wild type mouse Hepa1c1c7 cells cytosolic fraction. Type of series: cell-based.
For series [15] the target is unchanged. Nature of the series: Activation of Nrf2 in mutant mouse BpRc1 cells cytosolic fraction assessed as induction of quinone reductase activity using 2,6-DCIP as substrate in presence of NADH incubated for 48 hrs measured for 1 min. Type of series: cell-based.
For series [16] the target is unchanged. Nature of the series: Activation of Nrf2 in wild type mouse Hepa1c1c7 cells cytosolic fraction assessed as induction of quinone reductase activity at 10 uM using 2,6-DCIP as substrate in presence of NADH incubated for 48 hrs measured for 1 min relative to control.
A further series concerns TK-10. Nature of the series: Cytotoxicity against human TK10 cells assessed as cell survival after 24 hrs by SRB assay. The series is classed as functional, cell-based. The note with it: TK-10, 24 h.
The test system of series [17] is Rattus norvegicus. Nature of the series: In vivo induction of CYP450 activity in Wistar rat colon microsomal fraction at 15 mg/kg, po qd administered over 2 weeks by measuring EROD activity using 7-ethoxyresorufine as substrate measured for 5 mins. Type of series: ADME, organism-based. Particulars: microsomes.
Series [18] in a line: Cytotoxicity against wild type mouse Hepa1c1c7 cells after 48 hrs by SRB assay. Type of series: functional, cell-based. Particulars: Hepa-1c1c7, 48 h.
Series [19] has as its system Rattus norvegicus. Nature of the series: In vivo induction of GST activity in Wistar rat colon cytosolic fraction at 15 mg/kg, po qd administered over 2 weeks by measuring GS-CDNB adduct formation using CDNB/GSH as substrate measured for 1 min relative to control. Type of series: functional.
For series [20], the system named is Rattus norvegicus. Nature of the series: In vivo induction of quinone reductase activity in Wistar rat colon cytosolic fraction at 15 mg/kg, po qd administered over 2 weeks using 2,6-DCIP as substrate relative to control. Type of series: functional.
For series [21], the system named is Rattus norvegicus. Nature of the series: In vivo induction of GST activity in Wistar rat liver cytosolic fraction at 15 mg/kg, po qd administered over 2 weeks by measuring GS-CDNB adduct formation using CDNB/GSH as substrate measured for 1 min relative to control. The series is classed as functional.
The test system of series [22] is Rattus norvegicus. Nature of the series: In vivo induction of quinone reductase activity in Wistar rat mammary gland cytosolic fraction at 15 mg/kg, po qd administered over 2 weeks using 2,6-DCIP as substrate relative to control. Type of series: functional.
For series [23], the system named is Rattus norvegicus. Nature of the series: In vivo induction of GST activity in Wistar rat mammary gland cytosolic fraction at 15 mg/kg, po qd administered over 2 weeks by measuring GS-CDNB adduct formation using CDNB/GSH as substrate measured for 1 min relative to control. The series is classed as functional.
For series [24], the system named is Rattus norvegicus. Nature of the series: In vivo induction of quinone reductase activity in Wistar rat liver cytosolic fraction at 15 mg/kg, po qd administered over 2 weeks using 2,6-DCIP as substrate relative to control. The series is classed as functional.
For series [25], the system named is MCF7. Nature of the series: Cytotoxicity against human MCF7 cells assessed as cell survival after 24 hrs by SRB assay. Type of series: functional, cell-based. Particulars: MCF7, 24 h.
Series [26] deals with HT-29. Nature of the series: Cytotoxicity against human HT-29 cells assessed as cell survival after 24 hrs by SRB assay. Type of series: functional, cell-based. The note with it: HT-29, 24 h.

As to `O=C(/C=C/c1cccc2ccccc12)c1ccccc1O`, the viability at 100 µM in the series on MCF7 [1] and in the series on HT-29 [13] was below 50% in each case. Besides, the figures for the fold change (FC) in series [2] and in [16] were 2.21 and 3.21, respectively. Besides, the Activity entry with Rattus norvegicus [3] is recorded as “Toxic”; in the series on Rattus norvegicus [5], “Non-Toxic”; in the series on Salmonella typhimurium, “Non-Toxic”; with Rattus norvegicus [7], “Non-Toxic”; in the series on HK-2, “Non-Toxic”; with Rattus norvegicus [10] it was “Non-Toxic”. Further, in the series on Rattus norvegicus [17], the Activity entry is recorded as “Non-Toxic”. Also, the Ratio is 4.5 in series [4], 3 in series [8], 1.5 in [11] and 0.91 in [14]. Also, the result in series [6] was Active. Moreover, the CD in [9] was determined as 11 µM; in [15], 10 µM. The IC50 in [12] was determined as 45 µM; with TK-10, 14 µM; in series [18] it was 33 µM.

On to `O=C(/C=C/c1cccnc1Br)c1ccccc1O`, for which the outcome (in the series on MCF7 [1]; in series [6]) was Active. Besides, the Activity in the series on Rattus norvegicus [19] is on record as 16%; in the series on Rattus norvegicus [3], “Non-Toxic”; in the series on Rattus norvegicus [5], “Non-Toxic”; with Salmonella typhimurium, “Non-Toxic”; in the series on Rattus norvegicus [7], “Non-Toxic”; with Rattus norvegicus [20], 11%. Besides, the Activity result with HK-2 is listed as “Non-Toxic”; with Rattus norvegicus [10] it was “Non-Toxic”; in the series with Rattus norvegicus [21], 29%; in the series with Rattus norvegicus [22], 13%; in the series with Rattus norvegicus [23] it was 10%; with Rattus norvegicus [24] it was 25%. For the same compound, the Activity entry in the series on Rattus norvegicus [17] is “Non-Toxic”. For the same compound, the fold change (FC) in [2] was 1.98; in [16], 1.57. In addition, the Ratio is above 20 in [4], 2.8 in series [8], 0.8 in [11] and 0.71 in series [14]. Also, the figures for the CD in series [9] and in series [15] were 14 µM and 10 µM, respectively. Further, the IC50 in [12] is above 200 µM; in the series on TK-10, 26 µM; in [18] it was 39 µM.

As for `O=C(/C=C/c1ccccc1)c1ccc2ccccc2c1`, the viability at 100 µM with MCF7 [1] and in the series on HT-29 [13] was below 50% each time. The fold change (FC) in series [2] came to 1.21; in series [16], 0.96. The IC50 stood at 28 µM in the series with MCF7 [25] and 32 µM in the series with HT-29 [26]. Also, the Activity entry in the series with Salmonella typhimurium and with HK-2 was “Non-Toxic” throughout. The Ratio in [11] amounted to 0.8.

The term IC50 denotes the concentration needed to halve the response being measured.
